Results: patent US20130165368A1, “ANTIMICROBIAL COMPOUNDS” (priority 2010, published 2013)
In brackets after ≈: the same amount, converted by molar mass. Where two headings read alike, the source gives them in different places.

Columns and labels:
Format in all cases: cell-based
[1] = tested on: Klebsiella pneumoniae; assay: MIC agar dilution, micro-organism 2 (9528); conditions: Klebsiella pneumoniae 9528; 48 hrs; read-out: MIC
Experimental: (§1) Throughout the period of testing the microbial strains were subcultured and incubated for 18-20 hours at 37° C. on a weekly basis. Horse blood agar plates were used to sustain the micro-organisms both prior to and throughout testing. The alkoxylated alkanols listed in Table II below were obtained (these are obtainable from Sigma-Aldrich Company Ltd, Dorset, England), each having a GC purity of at least 97%.
(§2) Molar equivalent concentrations were used to allow comparison between compounds of differing molecular mass. Due to weighing difficulties, any compound in solid form was melted in a water bath prior to dilution. To make ten-times strength concentrations, which takes into account agar dilution, 0.0352 mmol of each compound was weighed into plastic universal bottles and 4 mL of sterile distilled water (SDW) was added. To produce a homogenous emulsion the universals were vortexed; once achieved the emulsions were serial diluted by adding 2 mL to 2 mL of SDW.
(§3) Myristyl alcohol and lauryl alcohol were re-weighed and dissolved in 25 μL of the polar solvent 1-methyl-2-pyrrolidone (M6762; Sigma-Aldrich) in sterile glass universals due to an inability to achieve an even suspension. To maintain an even emulsion in the presence of SDW 37.5 μL of the non-ionic detergent Tween 20 (P1379, Sigma-Aldrich) was also added. 3.9375 mL of SDW was added to these, to create a 4 mL volume; they were vortexed and diluted as before.
(§4) For every 100 mL of Isosensitest agar (IST) (CM0471; Oxoid, Basingstoke, England), 3.1 g of the IST powder was added to 100 mL SDW (as per manufacturer's instructions) and sterilised for 15 minutes at 121° C. Once sterilised, the molten agar was cooled to 50° C. in a water-bath. Subsequently 4.8 g of CCEY powder (BC2160; Bioconnections, Wetherby, England), also known as Brazier's medium, was added to 100 mL SDW for every 100 mL of agar needed. This was then sterilised for 15 minutes at 121° C. Once sterilised the molten agar was cooled to 50° C. in a water-bath and 4 mL of egg-yolk emulsion (S2073; TCS Biosciences Ltd, Buckingham, United Kingdom) and 1 mL of lysed defibrinated horse blood (HB035; TCS Biosciences Ltd, Buckingham, United Kingdom) were also added for every 100 mL needed. Horse blood lysis is achieved by dilution to half concentration with SDW; when fully lysed the mixture will turn dark red in colour.
(§5) 18 mL agar was added to each universal and then poured into sterile Petri dishes. This step creates a 1/10 dilution resulting in agar plates of the required strength. Control plates for each set of strains were created by adding 18 mL of agar to 2 mL of SDW.
(§6) Suspensions of each bacterial species were prepared with a density equal to that of a 0.5 McFarland standard using a densitometer. All suspensions were made using sterile distilled water and fresh 18-20 hour cultures. As a 0.5 McFarland standard contains 1.5×10^8 CFU/mL and the multipoint inoculators applies 1 μL spots of liquid, each bacterial suspension was diluted 1/15 (20 μL suspension to 280 μL sterile distilled water).
(§7) Bacterial suspensions were prepared from fresh 18-24 hour cultures as previously described. 1 μL of each strain was inoculated onto all 100 agar plates containing a different chemical concentration and the 2 control plates. This was done using a multipoint inoculator which inoculates 20 strains per plate. All plates were incubated for 22 hours at 37° C. in aerobic conditions.
(§8) Each plate was examined for bacterial growth after 22 and 48 hours, with each being incubated in between examinations. A positive result was recorded as growth of ≧10 colonies. A negative result was recorded as growth of <10 colonies as this is equivalent to 99.9% inhibition. The lowest concentration of chemical that inhibited growth was recorded as the MIC. The results are recorded in Table IV below, where the numbers are quoted in mmol/L.
(§9) Further experiments have also been conducted to determine the MIC of a number of other compositions as follows. […]

[2] = tested on: Acinetobacter baumannii; assay: MIC agar dilution, micro-organism 10 (19606); conditions: Acinetobacter baumannii 19606; 48 hrs; read-out: MIC
Experimental: as §1, §2, §3, §4, §5, §6, §7, §8, §9

[3] = tested on: Providencia rettgeri; assay: MIC agar dilution, micro-organism 3 (7475); conditions: Providencia rettgeri 7475, read-out: MIC
Experimental: as §1, §2, §3, §4, §5, §6, §7
as §8, with “mmol/L. […]” for “mmol/L.”

[4] = tested on: Staphylococcus aureus (MRSA); assay: MIC agar dilution, micro-organism 12 (11939); conditions: Staphylococcus aureus, MRSA, Staphylococcus aureus (MRSA) 11939, read-out: MIC
Experimental: as §1, §2, §3, §4, §5, §6, §7
as §8, with “mmol/L. […]” for “mmol/L.”

[5] = tested on: Staphylococcus aureus; assay: MIC agar dilution, micro-organism 13 (6571); conditions: Staphylococcus aureus, Staphylococcus aureus 6571, read-out: MIC
Experimental: as §1, §2, §3, §4, §5, §6, §7
as §8, with “mmol/L. […]” for “mmol/L.”

[6] = tested on: Candida albicans; assay: MIC agar dilution, micro-organism 19 (90028); conditions: Candida albicans 90028, read-out: MIC
Experimental: as §1, §2, §3, §4, §5, §6, §7
as §8, with “mmol/L. […]” for “mmol/L.”

[7] = tested on: Burkholderia cepacia; assay: MIC agar dilution, micro-organism 9 (1222); conditions: Burkholderia cepacia 1222; 48 hrs; read-out: MIC
Experimental: as §1, §2, §3, §4, §5, §6, §7, §8, §9

[8] = tested on: Enterococcus faecium; assay: MIC agar dilution, micro-organism 16 (7171); conditions: Enterococcus faecium 7171, read-out: MIC
Experimental: as §1, §2, §3, §4, §5, §6, §7
as §8, with “mmol/L. […]” for “mmol/L.”

[9] = tested on: Enterococcus faecalis; assay: MIC agar dilution, micro-organism 17 (775); conditions: Enterococcus faecalis 775, read-out: MIC
Experimental: as §1, §2, §3, §4, §5, §6, §7
as §8, with “mmol/L. […]” for “mmol/L.”

[10] = tested on: Bacillus subtilis; assay: MIC agar dilution, micro-organism 18 (9372); conditions: Bacillus subtilis 9372, read-out: MIC
Experimental: as §1, §2, §3, §4, §5, §6, §7
as §8, with “mmol/L. […]” for “mmol/L.”

[11] = tested on: Salmonella typhimurium; assay: MIC agar dilution, micro-organism 6 (74); conditions: Salmonella enterica; Salmonella typhimurium 74; 48 hrs; read-out: MIC
Experimental: as §1, §2, §3, §4, §5, §6, §7, §8, §9

[12] = tested on: Enterobacter cloacae; assay: MIC agar dilution, micro-organism 4 (11936); conditions: Enterobacter cloacae 11936; 48 hrs; read-out: MIC
Experimental: as §1, §2, §3, §4, §5, §6, §7, §8, §9

[13] = tested on: Staphylococcus epidermidis; assay: MIC agar dilution, micro-organism 14 (11047); conditions: Staphylococcus epidermidis 11047, read-out: MIC
Experimental: as §1, §2, §3, §4, §5, §6, §7
as §8, with “mmol/L. […]” for “mmol/L.”

[14] = tested on: Serratia marcescens; assay: MIC agar dilution, micro-organism 5 (10211); conditions: Serratia marcescens 10211; 48 hrs; read-out: MIC
Experimental: as §1, §2, §3, §4, §5, §6, §7, §8, §9

[15] = tested on: Yersinia enterocolitica; assay: MIC agar dilution, micro-organism 8 (11176); conditions: Yersinia enterocolitica 11176; 48 hrs; read-out: MIC
Experimental: as §1, §2, §3, §4, §5, §6, §7, §8, §9

[16] = tested on: Candida glabrata; assay: MIC agar dilution, micro-organism 20 (3943); conditions: Nakaseomyces glabratus, Candida glabrata 3943, read-out: MIC
Experimental: as §1, §2, §3, §4, §5, §6, §7
as §8, with “mmol/L. […]” for “mmol/L.”

[17] = tested on: Escherichia coli; assay: MIC agar dilution, micro-organism 1 (10418); conditions: Escherichia coli 10418, read-out: MIC
Experimental: as §1, §2, §3, §4, §5, §6, §7
as §8, with “mmol/L. […]” for “mmol/L.”

[18] = tested on: Pseudomonas aeruginosa; assay: MIC agar dilution, micro-organism 7 (10662); conditions: Pseudomonas aeruginosa 10662; 48 hrs; read-out: MIC
Experimental: as §1, §2, §3, §4, §5, §6, §7, §8, §9

[19] = tested on: Steptococcus pyogenes; assay: MIC agar dilution, micro-organism 11 (8306); conditions: Steptococcus pyogenes 8306, read-out: MIC
Experimental: as §1, §2, §3, §4, §5, §6, §7
as §8, with “mmol/L. […]” for “mmol/L.”

[20] = tested on: Listeria monocytogenes; assay: MIC agar dilution, micro-organism 15 (11994); conditions: Listeria monocytogenes 11994, read-out: MIC
Experimental: as §1, §2, §3, §4, §5, §6, §7
as §8, with “mmol/L. […]” for “mmol/L.”

[21] = tested on: Gram negative bacteria, Gram positive bacteria and pathogenic yeasts; assay: MIC agar dilution, summary statements over the micro-organisms tested (Tables I, IX); conditions: over the micro-organisms tested or some of them; read-out: MIC
From the text: For a better understanding, the present invention will now be more particularly described, by way of non-limiting example only, as follows. The micro-organisms shown in Table I overleaf were acquired from the National Collection of Type Cultures (NCTC), Colindale, United Kingdom; the American Type Culture Collection (ATCC), Manassas, United States and the National Collection of Pathogenic Fungi (NCPF), Colindale, United Kingdom. They include Gram negative bacteria, Gram positive bacteria and pathogenic yeasts.
as §1, §2, §3, §4, §5, §6
as §7, with “conditions. […]” for “conditions.”

Compound | MIC ([3]; 48 hrs) [µM] | MIC ([4]; 48 h, 48 hrs) [µM] | MIC ([5]; 48 h, 48 hrs) [µM] | MIC ([6]; 48 hrs) [µM] | MIC ([8]; 48 hrs) [µM] | MIC ([9]; 48 hrs) [µM] | MIC ([10]; 48 hrs) [µM] | MIC ([13]; 48 hrs) [µM] | MIC ([16]; 48 h, 48 hrs) [µM] | MIC ([17]; 48 hrs) [µM] | MIC ([19]; 48 h, 48 hrs) [µM] | MIC ([20]; 48 hrs) [µM] | MIC ([3]; 22 hrs) [µM] | MIC ([4]; 22 h, 22 hrs) [µM] | MIC ([5]; 22 h, 22 hrs) [µM] | MIC ([6]; 22 hrs) [µM] | MIC ([8]; 22 hrs) [µM] | MIC ([9]; 22 hrs) [µM] | MIC ([10]; 22 hrs) [µM] | MIC ([13]; 22 hrs) [µM] | other results
CCCCCCCCCCCCOCC(C)O (racemic) [PG1, 1-methyl-3-oxapentadecanol] | 880 (≈ 215 µg/mL) | 880 (≈ 215 µg/mL) | > 880 | > 880 | > 880 | > 880 | > 880 | > 880 | > 880 | > 880 | > 880 | > 880 |  |  |  |  |  |  |  |  | MIC [1]: > 880 µM; MIC [2]: > 880 µM; MIC [7]: > 880 µM; MIC [11]: > 880 µM; MIC [12]: > 880 µM; MIC [14]: > 880 µM; MIC [15]: > 880 µM; MIC [18]: > 880 µM
CCCCCCCCCCOCCO [D1, Ethylene Glycol Monodecyl Ether, reference compound] | > 880 | > 880 | > 880 | > 880 | > 880 | > 880 | > 880 | > 880 | > 880 | > 880 | > 880 | > 880 | > 880 | > 880 | > 880 | > 880 | > 880 | > 880 | > 880 | > 880 | MIC ([16]; 22 h, 22 hrs): > 880 µM; MIC ([17]; 22 hrs): > 880 µM; MIC [21]: > 880 µM; MIC ([19]; 22 h, 22 hrs): > 880 µM; MIC ([20]; 22 hrs): > 880 µM
CCCCCCCCCCCCCCOCCOCCOCCOCCO [M4, Tetraethylene Glycol Monotetradecyl Ether] | > 880 | 110 (≈ 43 µg/mL) | 55 (≈ 21.5 µg/mL) | > 880 | > 880 | 220 (≈ 85.9 µg/mL) | 220 (≈ 85.9 µg/mL) | 110 (≈ 43 µg/mL) | > 880 | > 880 | 27.5 (≈ 10.7 µg/mL) | > 880 | > 880 | 110 (≈ 43 µg/mL) | 55 (≈ 21.5 µg/mL) | > 880 | > 880 | 220 (≈ 85.9 µg/mL) | 220 (≈ 85.9 µg/mL) | 55 (≈ 21.5 µg/mL) | MIC ([16]; 22 h, 22 hrs): > 880 µM; MIC ([17]; 22 hrs): > 880 µM; MIC [21]: < 220 µM; MIC ([19]; 22 h, 22 hrs): 27.5 µM (≈ 10.7 µg/mL); MIC ([20]; 22 hrs): 440 µM (≈ 172 µg/mL)
